US20180327719A1, “METHOD FOR PRODUCING PANCREATIC BUD CELLS” (Kyoto University, priority 2015, published 2018)

How the values were obtained:
Assay type in all cases: cell-based, human
[1] = test system: PDX1+/NKX6.1− cells derived from iPS cell line (585A1); assay: Cell number count after Stage 3 culture with AT7867; conditions: 0.01 μM to 50 μM AT7867, 4 days, versus DMSO negative control (FIG. 2)
Procedure: (§1) The medium in the cell culture obtained in Stage 2-3 was changed to Improved MEM Zinc Option medium (15×10^4/ml) supplemented with 100 ng/ml KGF, 0.2 μM LDN193189, 50 ng/ml EGF (R&D systems, Inc.), indicated concentrations (0.01 μM to 50 μM) of AT7867 (Selleck Chemicals), 1% B-27 (DMSO as negative control) and the cells were further cultured for 4 days.

[2] = test system: PDX1+ cells; assay: Immunostaining with anti-PDX1 and anti-Ki67 antibodies in Stage 3; conditions: 1 μM AT7867, 1 to 4 days after addition in Stage 3 (FIG. 3)
Procedure: as §1

[3] = test system: NKX6.1+ cells; assay: Immunostaining with anti-NKX6.1 antibody after Stage 3; conditions: indicated concentrations of AT7867, after Stage 3 (FIG. 4A, 4B)
Procedure: as §1

[4] = test system: PDX1+/NKX6.1+ cells; assay: Double staining with anti-PDX1 and anti-NKX6.1 antibodies (flow cytometry) after Stage 3; conditions: addition of AT7867, after Stage 3 (FIGS. 5A and B)
Procedure: as §1

[5] = test system: PDX1, PTF1A, and NKX6.1 genes; assay: Quantitative PCR of PDX1, PTF1A and NKX6.1 gene expression during Stage 3; conditions: 1 μM AT7867, Day 0 to Day 4 of Stage 3, standardized with GAPDH, versus DMSO (FIG. 6)
Procedure: In Stage the cells were cultured in the presence of 1 μM AT7867. Cells were collected every day from Day 0 to Day 4 in Stage 3 and expression of PDX1, PTF1A, and NKX6.1 genes was measured by quantitative PCR. RNAs were extracted from the cells using RNeasy kit (Qiagen) and the reverse transcription reaction was performed with ReverTra Ace qPCR RT Master Mix (Toyobo) and oligo (dT) 20 primer. The quantitative PCR was performed with SYBR Premix Ex Taq II (Takara) using StepOnePlus™ Real-Time PCR System (Applied Biosystems). The gene expression was standardized with the expression of GAPDH gene and the relative gene expression was calculated from the relative standard curve (FIG. 6). […] PTF1A and NKX6.1 are transcription factors that indicate the differentiation of the cells into pancreatic bud cells

For `Clc1ccc(C2(c3ccc(-c4cn[nH]c4)cc3)CCNCC2)cc1` [AT7867], the “number of cells obtained in Stage 3” value [1] was “increased in a manner dependent on the concentration of AT7867”, the “PDX1 status of proliferated (Ki67+) cells” value [2] was “proliferated cells were positive for at least PDX1” and the “cells positive for at least NKX6.1” value [3] was “increased in a manner dependent on the concentration of AT7867”. For the same compound, the “PDX1+/NKX6.1+ cells” value [4] was “increased by the addition of AT7867”, the “expression of NKX6.1” value [5] was “increased over time” and the “expression of PDX1” value [5] was “increased over time”. The “expression of PTF1A” value [5] was “increased over time”.
